Reference: patent US8435549B2, “Halogen alkoxy spirocyclic tetramic and tetronic acid derivatives” (Bayer Cropscience AG, priority 2007, dated 2013)

How the values were obtained:
[1] = Determination of the log P values (LC/MS, HCOOH method); assay type: physicochemical; details: for log P: HPLC reversed-phase C18, HCOOH method; for chromatographic logP: reversed-phase C18 HPLC column, acidic range (pH 3.4)
Experimental: Determination of the Log P Values (LC/MS, HCOOH Method):
The log P values given in the tables were determined in accordance with EEC Directive 79/831 Annex V.A8 by HPLC (High Performance Liquid Chromatography) using a reversed-phase column (C 18). Temperature: 55° C.
Mobile phases for determination in the acidic range (pH 3.4):
Mobile phase A: acetonitrile+1 ml formic acid/liter. Mobile phase B: water+0.9 ml formic acid/liter. Gradient: from 10% mobile phase A/90% mobile phase B to 95% mobile phase A/5% mobile phase B over 4.25 min. Calibration was carried out using unbranched alkan-2-ones (having 3 to 16 carbon atoms) with known log P values (determination of the log P values by the retention times using linear interpolation between two successive alkanones). The lambda max values were determined in the maxima of the chromatographic signals using the UV spectra from 200 nm to 400 nm.

[2] = system: cotton aphid (Aphis gossypii); test: Enhancement of activity by ammonium/phosphonium salts in combination with penetrants, Aphis gossypii test; assay type: in vivo
Experimental: To produce a suitable preparation of active compound, 1 part by weight of active compound is mixed with the stated amounts of solvent and emulsifier, and the concentrate is diluted with emulsifier-containing water to the desired concentration. For application with ammonium or phosphonium salts and penetrants (rapeseed oil methyl esters 500 EW) these are added to the spray liquor in each case in a concentration of 1000 ppm.
Cotton plants (Gossypium hirsutum) which are heavily infested by the cotton aphid (Aphis gossypii) are treated by spraying to runoff point with the active compound preparation of the desired concentration.
After the desired period of time, the kill in % is determined. 100% means that all the aphids have been killed; 0% means that none of the aphids have been killed.

[3] = α isomer of the α + β mixture, 55° C.
[4] = β isomer of the α + β mixture, 55° C.
[5] = compounds of formula (I-2-b), single isomer as labelled
[6] = single isomer isolated by preparative HPLC (formula I-2-a)

In the case of `Cc1ccc(C)c(C2=C(O)C3(CCC(OCC(F)(F)F)CC3)OC2=O)c1` (mixture of isomers) [Example I-2-a-2], the “log P” value [1, 3] is reported as “α 3.10” and the “log P” value [1, 4] is reported as “β 2.95”.
In the case of `Cc1cc(C)c(C2=C(O)C3(CCC(OCC(F)(F)F)CC3)OC2=O)c(C)c1` (mixture of isomers) [Example I-2-a-3], the “log P” value [1, 3] is reported as “α 3.31” and the “log P” value [1, 4] is reported as “β 3.18”.
For `Cc1cc(C)c(C2=C(O)C3(CCC(OCC(F)(F)F)CC3)OC2=O)cc1C` (mixture of isomers) [Example I-2-a-4], the “log P” value [1, 3] was “α 3.34” and the “log P” value [1, 4] was “β 3.20”.
With `CCc1cc(C)cc(C)c1C1=C(O)C2(CCC(OCC(F)(F)F)CC2)OC1=O` (mixture of isomers) [Example I-2-a-5] the “log P” value [1, 3] was “α 3.54” and the “log P” value [1, 4] was “β 3.41”.
In the case of `Cc1ccc(-c2ccc(Cl)cc2)c(C)c1C1=C(O)C2(CCC(OCC(F)(F)F)CC2)OC1=O` (mixture of isomers) [Example I-2-a-6], the “log P” value [1, 3] is reported as “α 4.29” and the “log P” value [1, 4] is reported as “β 4.13”.
For `Cc1cc(Cl)cc(C)c1C1=C(O)C2(CCC(OCC(F)(F)F)CC2)OC1=O` (mixture of isomers) [Example I-2-a-8], the “log P” value [1, 3] was 3.39 and the “log P” value [1, 4] was 3.25.
With `COc1cc(C)cc(C)c1C1=C(O)C2(CCC(OCC(F)(F)F)CC2)OC1=O` (mixture of isomers) [Example I-2-a-11] the “log P” value [1, 3] was “α 3.07” and the “log P” value [1, 4] was “β 2.94”.
With `CCc1cc(-c2ccc(Cl)cc2)cc(C)c1C1=C(O)C2(CCC(OCC(F)(F)F)CC2)OC1=O` (mixture of isomers) [Example I-2-a-12] the “log P” value [1, 3] was “α 4.51” and the “log P” value [1, 4] was “β 4.36”.
With `Cc1ccc(-c2ccc(F)cc2)c(C)c1C1=C(O)C2(CCC(OCC(F)(F)F)CC2)NC1=O` (single isomer, unassigned) [Example I-1-a-3] the “Kill rate/% after 6 days” value ([2]; 4 ppm, +AS (1000 ppm)) was 0%, the “Kill rate/% after 6 days” value ([2]; 4 ppm, +RME (1000 ppm)) was 5% and the “Kill rate/% after 6 days” value ([2]; 4 ppm, +RME + AS (1000 ppm each)) was 25%. The “Kill rate/% after 6 days” value ([2]; 4 ppm, no additive) was 0%, the “Kill rate/% after 6 days” value ([2]; 20 ppm, +AS (1000 ppm)) was 5% and the “Kill rate/% after 6 days” value ([2]; 20 ppm, +RME (1000 ppm)) was 10%. The “Kill rate/% after 6 days” value ([2]; 20 ppm, +RME + AS (1000 ppm each)) was 90% and the “Kill rate/% after 6 days” value ([2]; 20 ppm, no additive) was 25%.
In the case of `Cc1ccc(C)c(C2=C(OC(=O)C(C)C)C3(CCC(OCC(F)(F)F)CC3)OC2=O)c1` (single isomer, unassigned) [Example I-2-b-5], the “log P” value [1, 5] is reported as 4.88.
With `Cc1ccc(C)c(C2=C(OC(=O)C(C)C)C3(CCC(OCC(F)(F)F)CC3)OC2=O)c1` (single isomer, unassigned) [Example I-2-b-6] the “log P” value [1, 5] was 4.62.
In the case of `Cc1cc(Cl)cc(C)c1C1=C(OC(=O)C(C)C)C2(CCC(OCC(F)(F)F)CC2)OC1=O` (single isomer, unassigned) [Example I-2-b-15], the “log P” value [1, 5] is reported as 5.25.
With `Cc1cc(Cl)cc(C)c1C1=C(OC(=O)C(C)C)C2(CCC(OCC(F)(F)F)CC2)OC1=O` (single isomer, unassigned) [Example I-2-b-16] the “log P” value [1, 5] was 4.97.
For `CCc1cc(-c2ccc(Cl)cc2)cc(C)c1C1=C(OC(=O)C(C)C)C2(CCC(OCC(F)(F)F)CC2)OC1=O` (single isomer, unassigned) [I-2-b-17], the “log P” value [1, 5] was 6.33.
For `CCc1cc(-c2ccc(Cl)cc2)cc(C)c1C1=C(OC(=O)C(C)C)C2(CCC(OCC(F)(F)F)CC2)OC1=O` (single isomer, unassigned) [I-2-b-18], the “log P” value [1, 5] was 6.02.
With `COc1cc(C)cc(C)c1C1=C(OC(=O)C(C)C)C2(CCC(OCC(F)(F)F)CC2)OC1=O` (single isomer, unassigned) [I-2-b-19] the “log P” value [1, 5] was 4.72.
For `COc1cc(C)cc(C)c1C1=C(OC(=O)C(C)C)C2(CCC(OCC(F)(F)F)CC2)OC1=O` (single isomer, unassigned) [I-2-b-20], the “log P” value [1, 5] was 4.48.
`CCc1cc(C)cc(CC)c1C1=C(O)C2(CCC(OCC(F)(F)F)CC2)OC1=O` (stereo not drawn) [Example I-2-a-1] gave a chromatographic logP ([1]; pH 3.4, α isomer of the isomer mixture, HPLC) of 3.78 and a chromatographic logP ([1]; pH 3.4, β isomer of the isomer mixture, HPLC) of 3.64.
With `Cc1cc(C)c(C2=C(O)C3(CCC(OCC(F)(F)F)CC3)OC2=O)c(C)c1` (stereo not drawn) [Example I-2-a-9] the “log P” value [1, 6] was 3.29.
In the case of `Cc1cc(C)c(C2=C(O)C3(CCC(OCC(F)(F)F)CC3)OC2=O)c(C)c1` (stereo not drawn) [Example I-2-a-10], the “log P” value [1, 6] is reported as 3.16.
`CCc1cc(C)cc(CC)c1C1=C(OC(=O)C(C)C)[C@]2(CC[C@H](OCC(F)(F)F)CC2)OC1=O` [Example I-2-b-1] showed a chromatographic logP ([1]; pH 3.4, HPLC) of 5.69.
With `CCc1cc(C)cc(C)c1C1=C(OC(=O)C(C)C)[C@]2(CC[C@@H](OCC(F)(F)F)CC2)OC1=O` [Example I-2-b-2] the chromatographic logP ([1]; pH 3.4, HPLC) was 5.4.
For `CCc1cc(C)cc(C)c1C1=C(OC(=O)C(C)C)[C@]2(CC[C@H](OCC(F)(F)F)CC2)OC1=O` [Example I-2-b-3], the “log P” value [1, 5] was 5.44.
With `CCc1cc(C)cc(C)c1C1=C(OC(=O)C(C)C)C2(CCC(OCC(F)(F)F)CC2)OC1=O` (stereo not drawn) [Example I-2-b-4] the “log P” value [1, 5] was 5.15.
For `Cc1cc(C)c(C2=C(OC(=O)C(C)C)[C@]3(CC[C@H](OCC(F)(F)F)CC3)OC2=O)cc1C` [Example I-2-b-7], the “log P” value [1, 5] was 5.14.
With `Cc1cc(C)c(C2=C(OC(=O)C(C)C)C3(CCC(OCC(F)(F)F)CC3)OC2=O)cc1C` (stereo not drawn) [Example I-2-b-8] the “log P” value [1, 5] was 4.87.
For `Cc1cc(C)c(C2=C(OC(=O)C(C)C)[C@]3(CC[C@H](OCC(F)(F)F)CC3)OC2=O)c(C)c1` [Example I-2-b-9], the “log P” value [1, 5] was 5.14.
With `Cc1cc(C)c(C2=C(OC(=O)C(C)C)C3(CCC(OCC(F)(F)F)CC3)OC2=O)c(C)c1` (stereo not drawn) [Example I-2-b-10] the “log P” value [1, 5] was 4.88.
In the case of `Cc1ccc(-c2ccc(Cl)cc2)c(C)c1C1=C(OC(=O)C(C)C)[C@]2(CC[C@H](OCC(F)(F)F)CC2)OC1=O` [Example I-2-b-11], the “log P” value [1, 5] is reported as 6.11.
In the case of `Cc1ccc(-c2ccc(Cl)cc2)c(C)c1C1=C(OC(=O)C(C)C)C2(CCC(OCC(F)(F)F)CC2)OC1=O` (stereo not drawn) [Example I-2-b-12], the “log P” value [1, 5] is reported as 5.83.
For `Cc1ccc(-c2ccc(Cl)cc2)cc1C1=C(OC(=O)C(C)C)[C@]2(CC[C@H](OCC(F)(F)F)CC2)OC1=O` [Example I-2-b-13], the “log P” value [1, 5] was 5.84.
In the case of `Cc1ccc(-c2ccc(Cl)cc2)cc1C1=C(OC(=O)C(C)C)C2(CCC(OCC(F)(F)F)CC2)OC1=O` (stereo not drawn) [Example I-2-b-14], the “log P” value [1, 5] is reported as 5.55.
